The record followed here is the Kinase Knowledgebase extract (Sharma et al. 2016).

Structures are written as SMILES. Where only a bound is given, the exact number is not on record here.

The target of one experiment is PIK3CA (human) (UniProt P42336). The experiment can be described thus: Enzyme Assay.
In another experiment the target is PIK3CG (human) (UniProt P48736). Nature of the experiment: Enzyme Assay.
Experiment [1] addresses PIK3CD (Human) (UniProt O00329). Nature of the experiment: Cell-Based Assay. The note with it: raji.
Another experiment concerns the target PIK3CB (Human) (UniProt P42338). The experiment can be described thus: Enzyme Assay.
The target of experiment [2] is PIK3CD (Human) (UniProt O00329). Nature of the experiment: Enzyme Assay.
PIK3CD (Human), sequence (O00329 whole entry, looked up): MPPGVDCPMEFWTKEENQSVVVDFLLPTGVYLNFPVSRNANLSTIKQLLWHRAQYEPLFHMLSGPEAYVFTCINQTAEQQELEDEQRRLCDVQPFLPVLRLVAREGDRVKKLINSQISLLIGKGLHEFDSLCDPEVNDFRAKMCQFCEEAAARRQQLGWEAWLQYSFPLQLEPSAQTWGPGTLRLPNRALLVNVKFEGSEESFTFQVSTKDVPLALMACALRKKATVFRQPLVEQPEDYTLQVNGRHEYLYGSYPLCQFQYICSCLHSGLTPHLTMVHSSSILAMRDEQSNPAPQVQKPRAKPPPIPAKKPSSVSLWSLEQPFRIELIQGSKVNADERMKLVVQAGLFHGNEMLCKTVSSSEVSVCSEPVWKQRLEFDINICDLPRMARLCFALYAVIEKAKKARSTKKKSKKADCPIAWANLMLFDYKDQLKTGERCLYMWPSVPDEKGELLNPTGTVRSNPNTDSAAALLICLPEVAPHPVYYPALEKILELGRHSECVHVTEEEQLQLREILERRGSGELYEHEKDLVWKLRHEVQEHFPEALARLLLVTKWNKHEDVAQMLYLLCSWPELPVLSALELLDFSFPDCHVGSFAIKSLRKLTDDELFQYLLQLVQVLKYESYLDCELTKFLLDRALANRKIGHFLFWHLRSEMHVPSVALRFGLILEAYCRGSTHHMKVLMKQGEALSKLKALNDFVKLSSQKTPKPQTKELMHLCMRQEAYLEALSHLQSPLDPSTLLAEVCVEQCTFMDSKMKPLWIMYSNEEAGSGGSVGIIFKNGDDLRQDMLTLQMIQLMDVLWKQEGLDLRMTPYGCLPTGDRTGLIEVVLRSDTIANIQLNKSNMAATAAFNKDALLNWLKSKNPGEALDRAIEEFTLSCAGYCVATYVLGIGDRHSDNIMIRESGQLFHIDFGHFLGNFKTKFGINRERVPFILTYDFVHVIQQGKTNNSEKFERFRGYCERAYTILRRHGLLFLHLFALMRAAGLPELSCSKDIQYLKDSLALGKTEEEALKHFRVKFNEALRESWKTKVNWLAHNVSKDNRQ

PIK3CB (Human), sequence (P42338 whole entry, looked up): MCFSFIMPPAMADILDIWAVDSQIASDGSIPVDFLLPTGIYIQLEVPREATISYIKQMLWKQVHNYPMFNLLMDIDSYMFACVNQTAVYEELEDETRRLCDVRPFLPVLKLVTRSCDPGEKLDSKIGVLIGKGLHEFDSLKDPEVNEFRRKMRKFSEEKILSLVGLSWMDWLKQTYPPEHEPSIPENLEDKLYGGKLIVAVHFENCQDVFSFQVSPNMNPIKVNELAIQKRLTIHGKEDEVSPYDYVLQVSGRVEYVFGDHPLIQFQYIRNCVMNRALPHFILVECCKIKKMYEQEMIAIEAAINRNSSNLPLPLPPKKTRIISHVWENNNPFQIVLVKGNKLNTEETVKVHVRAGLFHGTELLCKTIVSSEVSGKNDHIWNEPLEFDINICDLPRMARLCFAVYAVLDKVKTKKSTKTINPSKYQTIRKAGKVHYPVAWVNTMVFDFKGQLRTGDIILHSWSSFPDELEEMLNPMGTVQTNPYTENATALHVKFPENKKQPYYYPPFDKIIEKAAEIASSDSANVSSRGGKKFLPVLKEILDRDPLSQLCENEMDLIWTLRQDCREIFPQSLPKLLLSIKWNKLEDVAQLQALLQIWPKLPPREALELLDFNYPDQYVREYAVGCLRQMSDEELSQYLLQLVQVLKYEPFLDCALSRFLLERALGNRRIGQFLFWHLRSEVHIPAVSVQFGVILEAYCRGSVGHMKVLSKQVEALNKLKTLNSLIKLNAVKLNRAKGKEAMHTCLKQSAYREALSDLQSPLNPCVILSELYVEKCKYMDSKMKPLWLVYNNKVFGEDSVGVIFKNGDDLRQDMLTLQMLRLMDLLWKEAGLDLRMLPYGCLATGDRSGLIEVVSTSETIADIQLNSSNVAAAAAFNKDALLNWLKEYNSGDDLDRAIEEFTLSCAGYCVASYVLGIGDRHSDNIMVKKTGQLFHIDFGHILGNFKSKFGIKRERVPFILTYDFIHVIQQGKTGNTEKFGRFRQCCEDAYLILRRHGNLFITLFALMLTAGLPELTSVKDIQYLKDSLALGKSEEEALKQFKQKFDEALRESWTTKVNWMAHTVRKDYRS
PIK3CG (human), sequence (P48736 whole entry, looked up): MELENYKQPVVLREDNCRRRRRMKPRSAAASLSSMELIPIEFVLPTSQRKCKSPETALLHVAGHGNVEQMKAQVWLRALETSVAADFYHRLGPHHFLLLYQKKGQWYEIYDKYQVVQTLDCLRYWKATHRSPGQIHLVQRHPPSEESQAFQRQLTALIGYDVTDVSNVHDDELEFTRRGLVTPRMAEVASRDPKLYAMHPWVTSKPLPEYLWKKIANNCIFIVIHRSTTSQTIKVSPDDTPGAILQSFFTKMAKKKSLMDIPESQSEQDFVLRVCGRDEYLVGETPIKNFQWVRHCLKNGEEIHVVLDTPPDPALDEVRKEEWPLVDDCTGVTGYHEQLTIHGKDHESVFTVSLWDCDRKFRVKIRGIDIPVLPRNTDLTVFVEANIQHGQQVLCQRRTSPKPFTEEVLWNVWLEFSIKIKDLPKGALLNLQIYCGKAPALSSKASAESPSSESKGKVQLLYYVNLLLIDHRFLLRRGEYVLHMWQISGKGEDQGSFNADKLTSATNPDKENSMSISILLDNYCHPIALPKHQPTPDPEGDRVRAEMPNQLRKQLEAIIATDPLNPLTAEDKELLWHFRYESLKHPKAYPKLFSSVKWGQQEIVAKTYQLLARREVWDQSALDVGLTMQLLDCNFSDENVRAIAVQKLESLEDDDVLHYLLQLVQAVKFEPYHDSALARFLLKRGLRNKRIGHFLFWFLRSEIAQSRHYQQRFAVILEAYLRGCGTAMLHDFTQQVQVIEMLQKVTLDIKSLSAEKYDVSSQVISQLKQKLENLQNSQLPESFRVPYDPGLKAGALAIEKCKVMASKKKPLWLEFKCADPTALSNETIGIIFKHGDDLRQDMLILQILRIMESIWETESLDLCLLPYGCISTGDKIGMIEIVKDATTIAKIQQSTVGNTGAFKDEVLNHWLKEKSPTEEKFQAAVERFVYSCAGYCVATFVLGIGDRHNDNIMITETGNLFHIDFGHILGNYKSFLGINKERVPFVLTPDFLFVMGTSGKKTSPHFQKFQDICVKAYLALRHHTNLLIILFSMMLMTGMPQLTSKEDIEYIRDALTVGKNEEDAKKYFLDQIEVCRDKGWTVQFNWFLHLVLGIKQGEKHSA
PIK3CA (human), sequence (P42336 whole entry, looked up): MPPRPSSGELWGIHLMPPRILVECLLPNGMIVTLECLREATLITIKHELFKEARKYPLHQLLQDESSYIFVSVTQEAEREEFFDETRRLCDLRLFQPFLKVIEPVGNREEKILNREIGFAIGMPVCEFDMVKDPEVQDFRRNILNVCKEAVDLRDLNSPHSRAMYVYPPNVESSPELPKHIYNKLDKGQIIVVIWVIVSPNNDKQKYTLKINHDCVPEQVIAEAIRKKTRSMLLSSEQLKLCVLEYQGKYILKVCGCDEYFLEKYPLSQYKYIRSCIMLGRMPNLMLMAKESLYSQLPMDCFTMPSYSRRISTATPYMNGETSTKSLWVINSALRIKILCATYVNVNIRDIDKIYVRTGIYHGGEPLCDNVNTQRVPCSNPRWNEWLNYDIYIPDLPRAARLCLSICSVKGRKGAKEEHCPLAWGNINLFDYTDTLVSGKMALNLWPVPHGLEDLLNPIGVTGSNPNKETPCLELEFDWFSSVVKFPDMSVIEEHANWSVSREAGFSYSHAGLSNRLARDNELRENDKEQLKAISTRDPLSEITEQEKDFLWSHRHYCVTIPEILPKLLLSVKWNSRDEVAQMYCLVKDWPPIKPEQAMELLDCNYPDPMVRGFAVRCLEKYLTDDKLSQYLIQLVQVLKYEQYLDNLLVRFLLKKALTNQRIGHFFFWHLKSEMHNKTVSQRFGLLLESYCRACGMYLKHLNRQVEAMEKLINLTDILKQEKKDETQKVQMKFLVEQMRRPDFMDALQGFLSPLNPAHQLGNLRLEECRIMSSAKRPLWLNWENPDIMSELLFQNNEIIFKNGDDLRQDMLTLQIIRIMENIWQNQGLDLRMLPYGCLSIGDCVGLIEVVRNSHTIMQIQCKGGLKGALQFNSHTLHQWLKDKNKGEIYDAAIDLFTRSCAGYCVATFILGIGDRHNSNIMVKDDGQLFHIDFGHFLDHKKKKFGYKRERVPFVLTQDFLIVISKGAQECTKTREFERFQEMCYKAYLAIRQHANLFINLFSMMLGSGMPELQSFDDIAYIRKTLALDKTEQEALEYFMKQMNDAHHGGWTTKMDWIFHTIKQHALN

The IC50 is the concentration at which inhibition is half-maximal. A higher IC50 goes with weaker potency. Turning to `C[C@H](NC(=O)c1c(N)nn2cccnc12)c1cc2cccc(C#CCNC(=O)C3CCC(=O)C3)c2c(=O)n1-c1ccccc1` (stereo not given in full), the concentration for half-maximal inhibition (IC50) was 0.1 to 1 µM on PIK3CA (human), under 100 nM on PIK3CG (human) and under 100 nM against PIK3CD (Human) [1].

For `C[C@H](NC(=O)c1c(N)nn2cccnc12)c1cc2cccc(-c3cnn(C)c3)c2c(=O)n1-c1ccccc1`, the half-inhibitory concentration (IC50) on PIK3CA (human) was at least 10 µM; at PIK3CB (Human), at least 10 µM; against PIK3CG (human), 100 to 1000 nM; on PIK3CD (Human) [1], under 100 nM.

As for `C[C@H](NC(=O)c1c(N)nn2cccnc12)c1cc2ccsc2c(=O)n1-c1ccccc1`, the half-maximal inhibitory concentration (IC50) on PIK3CA (human) is at least 10 µM; against PIK3CD (Human) [1], 100 to 1000 nM.

For the molecule `COc1ccc(-c2cnc(N)c(C(=O)N[C@@H](C)c3cc4cccc(Cl)c4c(=O)n3-c3ccccc3)n2)cc1F`, the IC50 at PIK3CA (human) and on PIK3CB (Human) was at least 10 µM each time.

As for `C[C@H](NC(=O)c1c(N)nn2cccnc12)c1cc2sccc2c(=O)n1-c1ccccc1`, the IC50 at PIK3CA (human) was at least 10 µM; against PIK3CD (Human) [1] it was 100 to 1000 nM.

Turning to `C[C@H](NC(=O)c1nc(-c2cccc(S(=O)(=O)NC3CC3)c2)cnc1N)c1cc2cccc(Cl)c2c(=O)n1-c1ccccc1`, the IC50 at PIK3CA (human) was at least 10 µM; on PIK3CD (Human) [1] it was under 100 nM.

As to `C[C@H](NC(=O)c1cnc2cccnn12)c1cc2cccc(Cl)c2c(=O)n1-c1ccccc1`, the IC50 on PIK3CD (Human) [2] and against PIK3CD (Human) [1] was 100 to 1000 nM in each case.

Regarding `CC(C)c1ccn2nc(N)c(C(=O)N[C@@H](C)c3cc4cccc(Cl)c4c(=O)n3-c3ccccc3)c2n1`, the IC50 at PIK3CA (human) is at least 10 µM; on PIK3CD (Human) [1], 100 to 1000 nM.

On to `C[C@H](NC(=O)c1c(N)nn2cccnc12)c1cc2cccc(CNC[C@@H]3CCCO3)c2c(=O)n1-c1ccccc1`, for which the IC50 on PIK3CA (human) and at PIK3CB (Human) was at least 10 µM each time.

As to `COc1cccc2cc([C@H](C)NC(=O)c3c(N)nn4cccnc34)n(-c3ccccc3)c(=O)c12`, the IC50 at PIK3CA (human) is at least 10 µM; against PIK3CB (Human), at least 10 µM; against PIK3CD (Human) [1], 100 to 1000 nM.

Take `C[C@H](NC(=O)c1cnn2cccnc12)c1cc2cccc(Cl)c2c(=O)n1-c1ccccc1`: the 50% inhibitory concentration (IC50) on PIK3CA (human) was at least 10 µM; at PIK3CD (Human) [1], 100 to 1000 nM.

On to `C[C@H](NC(=O)c1c(N)nn2cccnc12)c1cc2cccc(C#CCNC(=O)c3ccc(C#N)o3)c2c(=O)n1-c1ccccc1`, for which the values for the half-maximal inhibitory concentration (IC50) on PIK3CA (human), on PIK3CG (human) and on PIK3CD (Human) [1] were 0.1 to 1 µM, 100 to 1000 nM and under 100 nM, respectively.

Take `COc1cccc2c(Br)c([C@H](C)NC(=O)c3c(N)nn4cccnc34)n(-c3ccccc3)c(=O)c12`: the 50% inhibitory concentration (IC50) against PIK3CA (human) is at least 10 µM; against PIK3CB (Human), at least 10 µM; at PIK3CG (human) it was 100 to 1000 nM.

Turning to `Cc1cnc(C(=O)N[C@@H](C)c2c(Br)c3cccc(Cl)c3c(=O)n2-c2ccccc2)c(N)n1`, the IC50 on PIK3CA (human) and against PIK3CB (Human) was at least 10 µM each time.

Consider `COc1ccc(-c2cccc3cc([C@H](C)NC(=O)c4c(N)nn5cccnc45)n(-c4ccccc4)c(=O)c23)cn1`, for which the IC50 against PIK3CA (human) is at least 10 µM; at PIK3CB (Human) it was at least 10 µM; against PIK3CG (human) it was 100 to 1000 nM; at PIK3CD (Human) [1] it was under 100 nM.

With `C[C@H](NC(=O)c1nc(-c2cccc(S(=O)(=O)N(C)C)c2)cnc1N)c1cc2cccc(Cl)c2c(=O)n1-c1ccccc1`, the values for the 50% inhibitory concentration (IC50) against PIK3CA (human) and on PIK3CD (Human) [1] were at least 10 µM and 100 to 1000 nM, respectively.

On to `C[C@H](NC(=O)c1nccnc1N)c1cc2cccc(-c3cnn(C)c3)c2c(=O)n1-c1ccccc1`, for which the 50% inhibitory concentration (IC50) was at least 10 µM against PIK3CA (human), at least 10 µM on PIK3CB (Human), 100 to 1000 nM on PIK3CG (human) and under 100 nM against PIK3CD (Human) [1].

As to `C[C@H](NC(=O)c1c(N)oc2cccnc12)c1cc2cccc(Cl)c2c(=O)n1-c1ccccc1`, the IC50 against PIK3CA (human) was at least 10 µM.

Turning to `C[C@H](NC(=O)c1c(N)ncc2cccnc12)c1cc2cccc(N3CCOCC3)c2c(=O)n1-c1ccccc1`, the IC50 was at least 10 µM against PIK3CA (human), at least 10 µM against PIK3CB (Human), 100 to 1000 nM at PIK3CG (human) and under 100 nM on PIK3CD (Human) [1].

For `CC(NC(=O)c1c(N)nn2cccnc12)c1cc2cccc(Cl)c2nc1-c1ccccc1` (stereo not given), the half-inhibitory concentration (IC50) against PIK3CA (human) was at least 10 µM; on PIK3CD (Human) [1], under 100 nM.

Turning to `CC(C)Oc1cc(-c2cccc3nc([C@H](C)NC(=O)c4c(N)nn5cccnc45)n(-c4ccccc4)c(=O)c23)ccn1`, the IC50 at PIK3CA (human) was at least 10 µM; on PIK3CD (Human) [1], under 100 nM.

As to `COc1cc(-c2cccc3cc([C@H](C)NC(=O)c4ncc(C)nc4N)n(-c4ccccc4)c(=O)c23)ccn1`, the values for the 50% inhibitory concentration (IC50) against PIK3CA (human), on PIK3CB (Human) and against PIK3CD (Human) [1] were at least 10 µM, at least 10 µM and 100 to 1000 nM, respectively.

In the case of `CNS(=O)(=O)c1cccc(-c2cnc(N)c(C(=O)N[C@@H](C)c3cc4cccc(Cl)c4c(=O)n3-c3ccccc3)n2)c1`, the IC50 against PIK3CB (Human) was 0.1 to 1 µM; on PIK3CG (human) it was 100 to 1000 nM; against PIK3CD (Human) [1], under 100 nM.

Turning to `COc1ncc(-c2cccc3cc([C@H](C)NC(=O)c4c(N)nn5cccnc45)n(-c4ccccc4)c(=O)c23)s1`, the IC50 against PIK3CA (human) is at least 10 µM; against PIK3CB (Human) it was at least 10 µM; at PIK3CG (human), 100 to 1000 nM.

`Nc1nccnc1C(=O)N1CCC[C@H]1c1cc2cccc(Cl)c2c(=O)n1-c1ccccc1`: the IC50 against PIK3CA (human) was at least 10 µM; against PIK3CB (Human), at least 10 µM; on PIK3CG (human), at least 10000 nM.
